Counter-ions that a name gives are not always drawn. Like-named read-outs stand apart in the source and are kept apart here.
How the values were obtained:
[1] = system: trypsin; test: Amperometric determination of substrate hydrolysis by trypsin (oxidation current of liberated pADA); type: biochemical
Description: (§1) (a) A potentiostat, which is intended to maintain a constant potential difference between the measurement electrode and the reference electrode. A saw-tooth function generator, which generates a potential which varies between -0.1 and +0.4 V at a rate of 0.2 V/second. A graphic recorder with a good dynamic performance. A polytetrafluoroethylene cell which has a capacity of 5 ml and can hold three electrodes.
(b) Measurement electrode: This consists of a platinum plate which is surrounded by a cylinder of polytetrafluoroethylene (surface area 0.0314 cm^2).
(§2) (e) Solutions: The stock solutions of the enzyme (solution E) and of the substrate (solution S) are freshly prepared. The test solution, to which a given amount of E is added at the time t=0 of the kinetics, is termed A. The buffer, which has a pH of 8.15, is made up of 0.025 M Veronal^(R) and NaCl with an ionic strength of F=0.15.
(§3) (f) Example of an electrode made of carbon paste: 15 g of pure carbon powder are mixed with 9 ml of paraffin oil, for example that sold commercially under the trade name Nujol^(R). An electrode with a surface area of 0.16 cm^2 and a thickness of 3 mm can be shaped from the homogeneously mixed paste.
(§4) The measurement electrode is preconditioned in solution A without the enzyme, in order to impart to it a reproducible and precisely defined surface state before each cycle.
(§5) The preconditioning is achieved by applying a potential which has a saw-tooth profile and changes as a function of time, the potential varying between -0.1 and +b 0.4 V and changing at a rate of 0.2 V/second.
(§6) The electrode can then be used for the kinetic determinations, for which purpose the same saw-tooth potential as for the conditioning is applied every 60 seconds.
After deducting the base current at the particular potential, the current levels recorded at the maximum value of any one wave i=f(U) are proportional to the concentration of the electroactive species liberated during the hydrolysis. […]
The enzyme solution is added at the end of the potentiodynamic cycle which serves to record the base current (the base current has been shifted downwards; it is represented by the broken line). The concentrations corresponding to the current maxima can be read off from the calibration curve (FIG. 3). The conversion is determined as a function of time (maximum 30 minutes). […]
The reciprocal value of the rate (1/V) has been plotted as the ordinate and the reciprocal value of the concentration of the substrate (1/S) has been plotted as the abscissa. The reciprocal value of the rate 1/V was expressed as follows: either as (μA/minute--10 μg of enzyme)^-1 or as (μ mol×10^3 of pADA/minute--10 μg of enzyme). The points o represent an average value of 10 measured values for the rate and the points X represent a graphical average value. […]

[2] = system: thrombin; test: Amperometric determination of substrate hydrolysis by thrombin (oxidation current of liberated amine); type: biochemical
Description: as §1, §2, §3, §4, §5, §6
After deducting the base current at the particular potential, the current levels recorded at the maximum value of any one wave i=f(U) are proportional to the concentration of the electroactive species liberated during the hydrolysis. In the case of short hydrolysis times, a plot of the current levels against time is linear. The relationship between the enzyme concentration E (in μg/ml) and the rate of hydrolysis at time 0 (represented by the ratio (di/dt)o in μA/minute, that is to say by the gradient of the curve i=f (t) at the origin) for an electrode with a surface area of 1 cm^2 is given by the following formula: […]
The procedure is similar to that for trypsin and is also suitable for the determination of further enzymes, also with the aid of other substrates.
These constants (summarized in Table II below) have been obtained with the aid of the electrode prepared in accordance with Example I f).

[3] = carbon paste electrode, buffer a: Tris (0.025 M), NaCl (0.12 M), glycine (0.05 M), DMSO 4.76%, 20° C., pH 8.3
[4] = carbon paste electrode, buffer a: Tris (0.025 M), NaCl (0.12 M), glycine (0.05 M), DMSO 4.76%, 20° C., pH 8.3, read-out: KM: Michaelis constant

Km ([1]; carbon paste electrode, buffer b: Veronal (0.025 M), NaCl (0.12 M), DMSO 6.35%, 30° C., pH 8.4, read-out: KM: Michaelis constant) [µM] | Km ([1]; hydrolysis with trypsin 10 μg/ml, 30° C., pH 8.15 (TRIS), DMSO 6.35%, LINEWEAVER-BURK diagram FIG. 7, read-out: MICHAELIS-MENTEN constant Km) [µM] | Km [2, 4] [µM] | Km ([2]; hydrolysis with thrombin, procedure similar to that for trypsin, Veronal buffer, read-out: Km) [µM] | SMILES | VM: maximum rate ([1]; carbon paste electrode, buffer b: Veronal (0.025 M), NaCl (0.12 M), DMSO 6.35%, 30° C., pH 8.4) [μmole/minute I.U.] | Standardization: current after hydrolysis for one minute ([1]; hydrolysis of the substrate with 1 mM of trypsin for one minute, per cm^2 of electrode surface area, Veronal buffer pH 8.15) [μA/cm^2] | VM: maximum rate [2, 3] [μmole/minute I.U.] | Standardization: current after hydrolysis for one minute ([2]; 0.1 mM of substrate with 0.01 I.U. of thrombin for one minute, Veronal buffer) [μA/cm^2] | Vm ([2]; hydrolysis with thrombin, procedure similar to that for trypsin, Veronal buffer)
800 | 800 | – | – | N=C(N)NCCCC(NC(=O)c1ccccc1)C(=O)Nc1ccc(Nc2ccccc2)cc1 (racemic) [D,L-BAPADA, benzoyl-D,L-arginine-p-aminodiphenyl-amide, HCl] | 0.00096 | 0.295 | – | – | –
– | – | 37 | – | COc1cc(NC(=O)[C@H](CCCNC(=N)N)NC(=O)[C@@H]2CCCCN2C(=O)[C@H](N)Cc2ccccc2)cc2ccccc12 [H--D--Phe--Pip--Arg--4--MBNA] | – | – | 0.020 | – | –
– | – | 10 | 10 | N=C(N)NCCC[C@H](NC(=O)[C@@H]1CCCCN1C(=O)[C@H](N)Cc1ccccc1)C(=O)Nc1ccc(Nc2ccccc2)cc1 [HDL, H-D-phenylalanyl-L-pipecolyl-L-arginyl-p-amino-diphenylamide dihydrochloride] | – | – | 0.10 | 0.217 | 1.1×10^-7 moles/minute×I.U.

Source: patent US4304853A, “Method of determination for proteases and antiproteases” (priority 1979, dated 1981)
